Laboratory results published in US20230148005A1, “MACROCYCLIC COMPOUNDS AND USES THEREOF” (THESEUS PHARMACEUTICALS, INC., priority 2020, published 2023).

Tests used:
Ba/F3 EGFR-Del19/T790M = Ba/F3 EGFR-Del19/T790M (Homo sapiens, UniProt P00533, T790M, cells depend on it, form not given); test: Ba/F3 viability assay (CellTiter-Glo), DT; format: cell-based; settings: anti-proliferation, read-out: BaF3 DT IC50
Source text: (§1) Inhibition of cell proliferation can be studied using Ba/F3 viability assays, including the Promega CellTiter-Glo cell viability assay. This assay can be used to study the effect of compounds described herein in the following assays: (1) Ba/F3 Parental; (2) Ba/F3 EGFR-Del19/T790M; (3); Ba/F3 EGFR-Del19/C797S; and (4) Ba/F3 EGFR-Del19/T790M/C797S.

[1] = biological target: Ba/F3 EGFR-Del19/T790M/C797S (Homo sapiens, UniProt P00533, T790M/C797S, cells depend on it, form not given); test: Ba/F3 viability assay (CellTiter-Glo), DTC; format: cell-based; settings: anti-proliferation, read-out: BaF3 DTC IC50
Source text: as §1

Ba/F3 EGFR-Del19/C797S = Ba/F3 EGFR-Del19/C797S (Homo sapiens, UniProt P00533, C797S, cells depend on it, form not given); test: Ba/F3 viability assay (CellTiter-Glo), DC; format: cell-based; settings: anti-proliferation, read-out: BaF3 DC IC50
Source text: as §1

EGFR^L858R = EGFR^L858R (Homo sapiens, UniProt P00533, L858R); test: in vitro kinase assay (HTRF KinEASE-TK kit), L; format: biochemical; settings: kinase inhibition
Source text: (§2) Assays using an in vitro kinase assay kit (HTRF KinEASE-TK kit) can be used to study the inhibitory activity of compounds described herein with respect to EGFR mutants such as EGFR^L858R, EGFR^L58R/T790M, and EGFR^L858R/T790M/C^797S.

EGFR^L58R/T790M = EGFR^L58R/T790M (Homo sapiens, UniProt P00533, L858R/T790M); test: in vitro kinase assay (HTRF KinEASE-TK kit), LT; format: biochemical; settings: kinase inhibition
Source text: as §2

EGFR^L858R/T790M/C^797S = EGFR^L858R/T790M/C^797S (Homo sapiens, UniProt P00533, C797S/L858R/T790M); test: in vitro kinase assay (HTRF KinEASE-TK kit), LTC; format: biochemical; settings: kinase inhibition
Source text: as §2

Ba/F3 Parental = test: Ba/F3 viability assay (CellTiter-Glo), parental; format: cell-based; settings: Mus musculus, BaF3, anti-proliferation
Source text: as §1

Chain of EGFR^L858R (P00533 25-1210 L858R): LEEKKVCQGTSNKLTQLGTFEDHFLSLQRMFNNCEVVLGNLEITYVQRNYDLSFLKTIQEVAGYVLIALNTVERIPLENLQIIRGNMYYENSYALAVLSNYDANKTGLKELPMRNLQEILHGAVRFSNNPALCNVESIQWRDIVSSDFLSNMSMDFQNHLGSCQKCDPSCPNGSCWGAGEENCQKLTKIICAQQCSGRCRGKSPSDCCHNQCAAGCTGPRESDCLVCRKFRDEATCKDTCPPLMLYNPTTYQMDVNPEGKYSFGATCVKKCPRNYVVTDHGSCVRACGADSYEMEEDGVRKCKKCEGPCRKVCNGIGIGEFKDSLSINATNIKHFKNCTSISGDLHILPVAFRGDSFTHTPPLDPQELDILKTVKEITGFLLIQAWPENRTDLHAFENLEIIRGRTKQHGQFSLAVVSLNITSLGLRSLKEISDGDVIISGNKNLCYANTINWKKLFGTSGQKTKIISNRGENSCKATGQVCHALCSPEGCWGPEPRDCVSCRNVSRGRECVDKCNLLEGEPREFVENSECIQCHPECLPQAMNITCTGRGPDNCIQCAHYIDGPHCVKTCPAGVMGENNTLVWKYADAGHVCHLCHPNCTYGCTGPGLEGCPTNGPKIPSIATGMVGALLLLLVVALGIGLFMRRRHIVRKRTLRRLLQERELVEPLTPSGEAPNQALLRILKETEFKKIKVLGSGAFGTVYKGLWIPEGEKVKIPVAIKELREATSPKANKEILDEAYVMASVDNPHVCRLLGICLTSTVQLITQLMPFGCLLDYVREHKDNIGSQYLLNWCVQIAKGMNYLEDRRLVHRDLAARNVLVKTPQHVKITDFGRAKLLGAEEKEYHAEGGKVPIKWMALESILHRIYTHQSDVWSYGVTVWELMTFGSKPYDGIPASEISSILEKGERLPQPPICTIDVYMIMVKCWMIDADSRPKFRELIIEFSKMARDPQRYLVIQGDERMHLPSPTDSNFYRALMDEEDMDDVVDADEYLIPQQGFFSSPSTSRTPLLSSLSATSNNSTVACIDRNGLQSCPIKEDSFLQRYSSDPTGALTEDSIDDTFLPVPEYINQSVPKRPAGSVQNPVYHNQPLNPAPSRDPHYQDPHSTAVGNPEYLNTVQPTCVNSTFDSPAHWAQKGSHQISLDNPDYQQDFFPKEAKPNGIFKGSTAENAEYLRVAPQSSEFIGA
Chain of Ba/F3 EGFR-Del19/T790M/C797S (P00533 with tags, fused parts or gaps DEL746-750/T790M/C797S, form open): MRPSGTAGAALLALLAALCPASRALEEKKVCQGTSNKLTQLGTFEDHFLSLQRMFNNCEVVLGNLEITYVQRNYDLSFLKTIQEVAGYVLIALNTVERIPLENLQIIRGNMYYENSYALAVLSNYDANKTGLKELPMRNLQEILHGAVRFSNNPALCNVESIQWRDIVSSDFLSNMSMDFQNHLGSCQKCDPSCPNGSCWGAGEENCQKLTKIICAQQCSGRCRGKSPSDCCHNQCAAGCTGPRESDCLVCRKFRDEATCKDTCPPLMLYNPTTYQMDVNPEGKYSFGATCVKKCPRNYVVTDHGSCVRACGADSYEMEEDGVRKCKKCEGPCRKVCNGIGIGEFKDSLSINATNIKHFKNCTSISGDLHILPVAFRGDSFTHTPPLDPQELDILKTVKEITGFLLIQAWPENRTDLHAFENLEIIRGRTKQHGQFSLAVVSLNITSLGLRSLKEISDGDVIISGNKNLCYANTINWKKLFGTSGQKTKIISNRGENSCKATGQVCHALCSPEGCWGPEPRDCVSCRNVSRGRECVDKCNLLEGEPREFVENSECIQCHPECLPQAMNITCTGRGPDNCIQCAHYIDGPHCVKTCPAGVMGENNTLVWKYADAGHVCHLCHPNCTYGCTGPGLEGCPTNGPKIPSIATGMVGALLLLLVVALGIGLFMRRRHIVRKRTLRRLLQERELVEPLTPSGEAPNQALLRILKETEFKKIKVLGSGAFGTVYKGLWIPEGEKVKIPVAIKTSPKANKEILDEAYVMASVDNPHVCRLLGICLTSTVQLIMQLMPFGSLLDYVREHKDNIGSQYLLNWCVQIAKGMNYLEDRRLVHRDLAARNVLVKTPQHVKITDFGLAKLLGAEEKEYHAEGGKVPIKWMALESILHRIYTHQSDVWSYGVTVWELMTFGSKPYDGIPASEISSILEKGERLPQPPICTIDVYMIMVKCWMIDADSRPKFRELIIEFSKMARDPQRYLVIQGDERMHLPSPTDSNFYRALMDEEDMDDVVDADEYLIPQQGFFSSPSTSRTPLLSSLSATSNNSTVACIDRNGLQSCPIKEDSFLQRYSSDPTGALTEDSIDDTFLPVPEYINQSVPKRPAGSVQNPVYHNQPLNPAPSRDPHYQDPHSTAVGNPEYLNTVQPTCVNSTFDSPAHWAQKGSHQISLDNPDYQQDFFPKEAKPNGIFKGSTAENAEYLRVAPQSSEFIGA
Chain of Ba/F3 EGFR-Del19/T790M (P00533 with tags, fused parts or gaps DEL746-750/T790M, form open): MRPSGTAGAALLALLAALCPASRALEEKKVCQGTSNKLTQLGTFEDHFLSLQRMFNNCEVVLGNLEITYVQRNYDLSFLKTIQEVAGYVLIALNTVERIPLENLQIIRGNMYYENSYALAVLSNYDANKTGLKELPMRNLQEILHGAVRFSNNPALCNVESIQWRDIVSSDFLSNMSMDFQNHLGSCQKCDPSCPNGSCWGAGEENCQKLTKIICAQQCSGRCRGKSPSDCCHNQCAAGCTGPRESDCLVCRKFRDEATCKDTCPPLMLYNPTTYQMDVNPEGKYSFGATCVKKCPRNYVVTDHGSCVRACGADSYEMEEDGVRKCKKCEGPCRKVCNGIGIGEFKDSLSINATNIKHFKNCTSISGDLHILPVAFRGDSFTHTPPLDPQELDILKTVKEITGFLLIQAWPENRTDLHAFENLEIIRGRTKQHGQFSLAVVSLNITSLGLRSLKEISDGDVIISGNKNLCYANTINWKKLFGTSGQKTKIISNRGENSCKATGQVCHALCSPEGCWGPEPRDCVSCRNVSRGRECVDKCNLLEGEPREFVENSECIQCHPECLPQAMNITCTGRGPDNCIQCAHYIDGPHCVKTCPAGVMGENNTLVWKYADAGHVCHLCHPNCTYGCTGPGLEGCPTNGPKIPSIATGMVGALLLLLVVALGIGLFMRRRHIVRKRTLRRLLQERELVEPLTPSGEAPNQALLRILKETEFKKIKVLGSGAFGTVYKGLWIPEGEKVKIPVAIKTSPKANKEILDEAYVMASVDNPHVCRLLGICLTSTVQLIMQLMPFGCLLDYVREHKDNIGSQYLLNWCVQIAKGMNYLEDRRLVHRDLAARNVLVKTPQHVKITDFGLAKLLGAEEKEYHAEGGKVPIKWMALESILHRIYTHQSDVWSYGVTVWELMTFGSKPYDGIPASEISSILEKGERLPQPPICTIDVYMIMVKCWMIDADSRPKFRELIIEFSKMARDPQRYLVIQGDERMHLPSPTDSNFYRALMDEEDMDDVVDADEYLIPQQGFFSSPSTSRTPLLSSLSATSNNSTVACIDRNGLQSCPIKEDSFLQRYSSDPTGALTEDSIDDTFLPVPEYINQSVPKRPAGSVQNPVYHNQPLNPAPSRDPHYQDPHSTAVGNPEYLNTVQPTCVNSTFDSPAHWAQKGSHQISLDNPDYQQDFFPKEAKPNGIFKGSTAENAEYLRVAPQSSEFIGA
Chain of EGFR^L858R/T790M/C^797S (P00533 25-1210 T790M/C797S/L858R): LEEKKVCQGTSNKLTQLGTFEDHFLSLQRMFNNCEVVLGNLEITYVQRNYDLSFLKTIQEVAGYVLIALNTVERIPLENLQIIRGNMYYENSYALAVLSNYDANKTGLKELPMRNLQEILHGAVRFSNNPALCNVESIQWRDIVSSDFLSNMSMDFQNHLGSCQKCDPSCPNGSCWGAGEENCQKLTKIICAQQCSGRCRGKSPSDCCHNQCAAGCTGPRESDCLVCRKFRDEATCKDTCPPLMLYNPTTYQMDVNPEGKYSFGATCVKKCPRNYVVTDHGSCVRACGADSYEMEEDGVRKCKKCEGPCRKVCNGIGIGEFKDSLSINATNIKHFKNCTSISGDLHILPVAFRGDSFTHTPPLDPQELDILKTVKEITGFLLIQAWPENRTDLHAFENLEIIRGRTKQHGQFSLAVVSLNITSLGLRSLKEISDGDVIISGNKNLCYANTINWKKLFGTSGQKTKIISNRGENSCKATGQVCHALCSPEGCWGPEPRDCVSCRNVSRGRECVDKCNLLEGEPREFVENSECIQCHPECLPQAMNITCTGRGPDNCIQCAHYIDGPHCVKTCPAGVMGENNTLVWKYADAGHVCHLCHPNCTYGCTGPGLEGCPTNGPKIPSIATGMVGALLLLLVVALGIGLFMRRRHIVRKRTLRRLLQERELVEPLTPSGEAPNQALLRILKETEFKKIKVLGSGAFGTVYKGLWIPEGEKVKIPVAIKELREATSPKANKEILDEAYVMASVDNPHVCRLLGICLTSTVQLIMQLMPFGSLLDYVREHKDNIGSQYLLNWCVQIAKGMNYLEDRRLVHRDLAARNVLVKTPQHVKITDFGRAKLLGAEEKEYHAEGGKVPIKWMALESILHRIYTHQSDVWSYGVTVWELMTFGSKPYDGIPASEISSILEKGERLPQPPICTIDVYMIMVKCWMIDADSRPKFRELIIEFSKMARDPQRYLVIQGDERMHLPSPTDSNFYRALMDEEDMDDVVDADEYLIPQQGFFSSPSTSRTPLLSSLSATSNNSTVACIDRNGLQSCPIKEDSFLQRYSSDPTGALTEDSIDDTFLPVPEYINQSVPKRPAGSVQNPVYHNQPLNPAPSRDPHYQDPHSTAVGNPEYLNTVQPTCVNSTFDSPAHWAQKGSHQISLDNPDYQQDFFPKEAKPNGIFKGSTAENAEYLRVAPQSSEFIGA

CCn1c(CN2CCN(C3CC3)CC2)ccc1-c1nn2c3cc(ncc13)Nc1ccnc(n1)-c1cnn(C)c1OCC[C@@H]2C [(125)]
GI50 (Ba/F3 EGFR-Del19/T790M): < 10 nM | GI50 [1]: < 10 nM | GI50 (Ba/F3 EGFR-Del19/C797S): 10 to 100 nM | IC50 (EGFR^L858R): 10 to 100 nM | IC50 (EGFR^L58R/T790M): < 10 nM | IC50 (EGFR^L858R/T790M/C^797S): < 10 nM | IC50 (Ba/F3 Parental): 100 to 1000 nM

CCn1cc(-c2nn3c4cc(ncc24)Nc2ccnc(n2)-c2cnn(C)c2OCC[C@@H]3C)cc1CN1CCN(C2CC2)CC1 [(126)]
GI50 (Ba/F3 EGFR-Del19/T790M): < 10 nM | GI50 [1]: < 10 nM | GI50 (Ba/F3 EGFR-Del19/C797S): < 10 nM | IC50 (EGFR^L858R): < 10 nM | IC50 (EGFR^L58R/T790M): < 10 nM | IC50 (EGFR^L858R/T790M/C^797S): < 10 nM | IC50 (Ba/F3 Parental): 100 to 1000 nM

C[C@H]1CCOc2c(cnn2C)-c2nccc(n2)Nc2cc3c(cn2)c(-c2ccc(CN(C)C)n2C)nn31 [(127)]
GI50 (Ba/F3 EGFR-Del19/T790M): < 10 nM | GI50 [1]: < 10 nM | GI50 (Ba/F3 EGFR-Del19/C797S): < 10 nM | IC50 (EGFR^L858R): < 10 nM | IC50 (EGFR^L58R/T790M): < 10 nM | IC50 (EGFR^L858R/T790M/C^797S): < 10 nM | IC50 (Ba/F3 Parental): 100 to 1000 nM

CCN1CCC(Oc2cc(F)cc(-c3nn4c5cc(ncc35)Nc3ccnc(n3)-c3cnn(C)c3OCC[C@@H]4C)c2)CC1 [(128)]
GI50 (Ba/F3 EGFR-Del19/T790M): 10 to 100 nM | GI50 [1]: 10 to 100 nM | GI50 (Ba/F3 EGFR-Del19/C797S): 10 to 100 nM | IC50 (EGFR^L858R): 10 to 100 nM | IC50 (EGFR^L58R/T790M): < 10 nM | IC50 (EGFR^L858R/T790M/C^797S): < 10 nM | IC50 (Ba/F3 Parental): 100 to 1000 nM

C[C@H]1CCOc2c(cnn2C)-c2nccc(n2)Nc2cc3c(cn2)c(-c2cc(F)cc(OCCN(C)C)c2)nn31 [(129)]
GI50 (Ba/F3 EGFR-Del19/T790M): 10 to 100 nM | GI50 [1]: 10 to 100 nM | GI50 (Ba/F3 EGFR-Del19/C797S): 10 to 100 nM | IC50 (EGFR^L858R): 10 to 100 nM | IC50 (EGFR^L58R/T790M): < 10 nM | IC50 (EGFR^L858R/T790M/C^797S): < 10 nM | IC50 (Ba/F3 Parental): 100 to 1000 nM

C[C@H]1CCOc2c(cnn2C)-c2nccc(n2)Nc2cc3c(cn2)c(-c2cc(OCCN(C)C)ccc2F)nn31 [(130)]
GI50 (Ba/F3 EGFR-Del19/T790M): 10 to 100 nM | GI50 [1]: 10 to 100 nM | GI50 (Ba/F3 EGFR-Del19/C797S): 10 to 100 nM | IC50 (EGFR^L858R): 10 to 100 nM | IC50 (EGFR^L58R/T790M): < 10 nM | IC50 (EGFR^L858R/T790M/C^797S): < 10 nM | IC50 (Ba/F3 Parental): ≥ 1000 nM

C[C@H]1CCOc2c(cnn2C)-c2nccc(n2)Nc2cc3c(cn2)c(-c2ccc(F)c(OCCN(C)C)c2)nn31 [(131)]
GI50 (Ba/F3 EGFR-Del19/T790M): < 10 nM | GI50 [1]: < 10 nM | GI50 (Ba/F3 EGFR-Del19/C797S): < 10 nM | IC50 (EGFR^L858R): < 10 nM | IC50 (EGFR^L58R/T790M): < 10 nM | IC50 (EGFR^L858R/T790M/C^797S): < 10 nM | IC50 (Ba/F3 Parental): 100 to 1000 nM

CCN(CC)CCN(C)c1cc(F)cc(-c2nn3c4cc(ncc24)Nc2ccnc(n2)-c2cnn(C)c2OCC[C@@H]3C)c1 [(132)]
GI50 (Ba/F3 EGFR-Del19/T790M): 10 to 100 nM | GI50 [1]: 10 to 100 nM | GI50 (Ba/F3 EGFR-Del19/C797S): 10 to 100 nM | IC50 (EGFR^L858R): 10 to 100 nM | IC50 (EGFR^L58R/T790M): < 10 nM | IC50 (EGFR^L858R/T790M/C^797S): < 10 nM | IC50 (Ba/F3 Parental): 100 to 1000 nM

CCN(CC)CCOc1cc(F)cc(-c2nn3c4cc(ncc24)Nc2ccnc(n2)-c2cnn(C)c2OCC[C@@H]3C)c1 [(133)]
GI50 (Ba/F3 EGFR-Del19/T790M): 10 to 100 nM | GI50 [1]: 10 to 100 nM | GI50 (Ba/F3 EGFR-Del19/C797S): 10 to 100 nM | IC50 (EGFR^L858R): 10 to 100 nM | IC50 (EGFR^L58R/T790M): < 10 nM | IC50 (EGFR^L858R/T790M/C^797S): < 10 nM | IC50 (Ba/F3 Parental): 100 to 1000 nM

Cc1cc(OCCN(C)C)cc(-c2nn3c4cc(ncc24)Nc2ccnc(n2)-c2cnn(C)c2OCC[C@@H]3C)c1 [(134)]
GI50 (Ba/F3 EGFR-Del19/T790M): 10 to 100 nM | GI50 [1]: 10 to 100 nM | GI50 (Ba/F3 EGFR-Del19/C797S): 10 to 100 nM | IC50 (EGFR^L858R): < 10 nM | IC50 (EGFR^L58R/T790M): < 10 nM | IC50 (EGFR^L858R/T790M/C^797S): < 10 nM | IC50 (Ba/F3 Parental): 100 to 1000 nM

CCCN1CCN(Cc2ccc(-c3nn4c5cc(ncc35)Nc3ccnc(n3)-c3cnn(C)c3OCC[C@@H]4C)n2C)CC1 [(135)]
GI50 (Ba/F3 EGFR-Del19/T790M): < 10 nM | GI50 [1]: < 10 nM | GI50 (Ba/F3 EGFR-Del19/C797S): < 10 nM | IC50 (EGFR^L858R): < 10 nM | IC50 (EGFR^L58R/T790M): < 10 nM | IC50 (EGFR^L858R/T790M/C^797S): < 10 nM | IC50 (Ba/F3 Parental): 100 to 1000 nM

COCCN(C)Cc1ccc(-c2nn3c4cc(ncc24)Nc2ccnc(n2)-c2cnn(C)c2OCC[C@@H]3C)n1C [(136)]
GI50 (Ba/F3 EGFR-Del19/T790M): < 10 nM | GI50 [1]: < 10 nM | GI50 (Ba/F3 EGFR-Del19/C797S): < 10 nM | IC50 (EGFR^L858R): < 10 nM | IC50 (EGFR^L58R/T790M): < 10 nM | IC50 (EGFR^L858R/T790M/C^797S): < 10 nM | IC50 (Ba/F3 Parental): 100 to 1000 nM

CCN(CC)Cc1ccc(-c2nn3c4cc(ncc24)Nc2ccnc(n2)-c2cnn(C)c2OCC[C@@H]3C)n1C [(137)]
GI50 (Ba/F3 EGFR-Del19/T790M): < 10 nM | GI50 [1]: < 10 nM | GI50 (Ba/F3 EGFR-Del19/C797S): < 10 nM | IC50 (EGFR^L858R): < 10 nM | IC50 (EGFR^L58R/T790M): < 10 nM | IC50 (EGFR^L858R/T790M/C^797S): < 10 nM | IC50 (Ba/F3 Parental): 100 to 1000 nM

CCCN(C)Cc1ccc(-c2nn3c4cc(ncc24)Nc2ccnc(n2)-c2cnn(C)c2OCC[C@@H]3C)n1C [(138)]
GI50 (Ba/F3 EGFR-Del19/T790M): < 10 nM | GI50 [1]: < 10 nM | GI50 (Ba/F3 EGFR-Del19/C797S): < 10 nM | IC50 (EGFR^L858R): < 10 nM | IC50 (EGFR^L58R/T790M): < 10 nM | IC50 (EGFR^L858R/T790M/C^797S): < 10 nM | IC50 (Ba/F3 Parental): 100 to 1000 nM

C[C@H]1CCOc2c(cnn2C)-c2nccc(n2)Nc2cc3c(cn2)c(-c2cc(CN4CCOCC4)n(C)c2)nn31 [(139)]
GI50 (Ba/F3 EGFR-Del19/T790M): < 10 nM | GI50 [1]: < 10 nM | GI50 (Ba/F3 EGFR-Del19/C797S): < 10 nM | IC50 (EGFR^L858R): < 10 nM | IC50 (EGFR^L58R/T790M): < 10 nM | IC50 (EGFR^L858R/T790M/C^797S): < 10 nM | IC50 (Ba/F3 Parental): 100 to 1000 nM
